# Assays:
# TxA2 synthase [1] = conditions: known compound; cited from earlier work
# TxA2 receptor = target: T1, TxA2 receptor (Homo sapiens, UniProt P21731); test: [3H]-SQ 29,548 binding displacement in washed human platelets (TxA2 antagonism)
# T1 construct: endogenous in cells; host or cells: washed human platelets from healthy volunteers
# T1 sequence (P21731 1-343): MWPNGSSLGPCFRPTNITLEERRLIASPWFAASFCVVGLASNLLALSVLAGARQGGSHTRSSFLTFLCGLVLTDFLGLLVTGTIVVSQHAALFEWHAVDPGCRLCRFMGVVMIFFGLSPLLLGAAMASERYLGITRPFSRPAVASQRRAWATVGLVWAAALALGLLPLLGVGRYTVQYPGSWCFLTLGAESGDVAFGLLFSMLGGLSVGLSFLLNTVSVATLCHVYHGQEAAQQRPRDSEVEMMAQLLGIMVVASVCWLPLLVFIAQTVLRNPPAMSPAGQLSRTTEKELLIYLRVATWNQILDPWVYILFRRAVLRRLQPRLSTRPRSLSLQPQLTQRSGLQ
# Description: Platelet rich plasma (PRP), obtained by centrifugation of the blood at 200×g for 20 min, is washed twice (1000×g for 10 min). […] For displacement experiments various concentrations (10^-9 -10^-4 M) of competing ligands were added and incubated for 30 min at 25° C.
# The binding data were analysed by computerized non-linear curve fitting using the Ligand program and expressed as IC50.
# TxA2 Synthase [2] = target: T2, TxA2 Synthase (Rattus norvegicus, UniProt P49430); test: Inhibition of TxA2 synthase activity: TxB2 production in rat whole blood during clotting (serum, RIA), in vitro; type: cell-based; conditions: for inhibitory activity on TxA2 synthesis (in words): rat
# T2 construct: TxB2 generated in whole blood during clotting; endogenous in cells; host or cells: rat whole blood (blood cells, mainly platelets), clotted 1 h at 37 °C
# T2 sequence (P49430 1-533): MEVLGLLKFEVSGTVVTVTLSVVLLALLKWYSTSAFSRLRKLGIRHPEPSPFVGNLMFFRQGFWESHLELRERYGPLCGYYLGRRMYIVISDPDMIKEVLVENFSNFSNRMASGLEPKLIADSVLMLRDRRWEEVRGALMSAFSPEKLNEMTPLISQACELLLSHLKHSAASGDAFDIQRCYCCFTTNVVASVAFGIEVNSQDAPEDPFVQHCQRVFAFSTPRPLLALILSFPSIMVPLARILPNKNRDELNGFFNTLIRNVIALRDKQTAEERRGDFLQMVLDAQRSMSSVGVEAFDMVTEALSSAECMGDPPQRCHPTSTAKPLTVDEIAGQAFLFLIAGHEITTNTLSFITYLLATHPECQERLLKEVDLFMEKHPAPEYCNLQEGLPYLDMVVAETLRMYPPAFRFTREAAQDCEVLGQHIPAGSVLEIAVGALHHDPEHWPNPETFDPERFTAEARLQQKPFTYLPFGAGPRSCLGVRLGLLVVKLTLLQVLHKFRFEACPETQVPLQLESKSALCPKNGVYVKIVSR
# Description: The compounds of formula (I) were for example tested for their ability to inhibit TxA2 Synthase activity (as reflected by TxB2 generated in whole blood during clotting or in isolated glomeruli) in vitro in the rat.
# The in vitro experiments were carried out as follows:
# The effect of the compounds on TxA2 synthesis was evaluated in serum.
# Blood was withdrawn from the abdominal aorta of the animals under light ether anesthesia.
# Samples were then allowed to clot for 1 h at 37° C., centrifuged at 3000 rpm for 10 min, serum collected and stored at -20° C. until assayed. TxB2 levels were determined by RIA according to previously described procedures [Patrono et al.--Thromb. Res. 17, 3/4, 317, 1980] using highly specific antibody.
"IC50 (TxA2 receptor; 5 nM [3H]-SQ 29,548, 30 min at 25° C., pH 7.4)","IC50 (TxA2 Synthase [2]; rat whole blood, n = 8 replicates, limits for p = 0.95 printed on following line, clotting 1 h at 37° C.)",inhibitory activity on TxA2 synthesis (in words) (TxA2 Synthase [2]; listed as FCE 27109),Structure (SMILES),TxA2 synthase inhibitory activity (in words) (TxA2 synthase [1]),affinity for the receptor / TxA2 antagonism (in words) (TxA2 receptor),inhibitory activity on TxA2 synthesis (in words) (TxA2 Synthase [2])
–,–,–,O=C(O)COc1ccc(CCNS(=O)(=O)c2ccccc2)cc1 [BM 13177],devoid of TxA2 synthase inhibitory activity,–,–
38.7 nM,390 nM,active as TxA2 synthase inhibitor,"O=C(O)CCCCO/N=C(\c1ccccc1)C(Cc1ccc(F)cc1)n1ccnc1 (racemic) [FCE 27317, (±)-(E)-5-[1-phenyl-2-(imidazol-1-yl)-2-(4-fluorobenzyl)ethylidene]aminoxypentanoic acid]",–,good affinity for the receptor better than that showed by the known compound Sulotroban (BM 13177),marked inhibitory activity on TxA2 synthesis significantly more potent than that of reference compounds Dazoxiben and ASA

# Reference: US5283254A, “2-(imidazol-1-yl)-2-benzylethyldiene-aminoxyalkanoic acid derivatives” (Farmitalia Carlo Erba S.r.l., priority 1991, dated 1994)
